Data as given in patent US8541342B2, “Fungicidal substance combinations” (Bayer Cropsciene AG, priority 2007, dated 2013).

Columns and labels:
Pyrenophora teres = Pyrenophora teres test (barley)/protective; details: protective spray on barley, evaluation 10 days after inoculation
Gibberella zeae = assay: microbe, parasite or virus in culture; format: cell-based; details: Fusarium graminearum, 120 h, read-out: % efficacy

SMILES | Efficacy in % found (Pyrenophora teres; 62.5 g/ha) | Efficacy in % found (Pyrenophora teres; 125 g/ha) | Efficacy at 0.3 ppm (Gibberella zeae)
Cc1nn(C)c(F)c1C(=O)Nc1ccccc1C(C)CC(C)C (stereo not shown) [(I), N-[2-(1,3-Dimethylbutyl)phenyl]-5-fluoro-1,3-dimethyl-1H-pyrazole-4-carboxamide] | 67% |  | 
COCC(=O)N(c1c(C)cccc1C)C(C)C(=O)OC (stereo not shown) [(III), Metalaxyl] |  | 22% | 
CO/N=C(/C(=O)OC)c1ccccc1CO/N=C(\C)c1cccc(C(F)(F)F)c1 [Trifloxystrobin, trifloxystrobin] | 78% |  | 40%
